Residue numbers refer to the chain shown, from its start.
Tests used:
[1] = target: T1, HEK-293 cells expressing a G810R mutant RET Kif5b-RET fusion protein (Homo sapiens, UniProt P07949, G810R); experiment: RET G810R Mutant Cell Assay (phospho-RET Tyr1062); assay type: cell-based; conditions: HEK-293 Kif5b-RET G810R, 1 hour incubation, phospho-RET normalized to GAPDH
T1 construct: KIF5B (N-terminal portion incl. coiled-coil); expressed in transfected cells; host or cells: HEK-293; the other entry of the earlier key: KIF5B (P33176, Kinesin-1 heavy chain)
T1 sequence (P07949 713-1063 G810R limits assumed): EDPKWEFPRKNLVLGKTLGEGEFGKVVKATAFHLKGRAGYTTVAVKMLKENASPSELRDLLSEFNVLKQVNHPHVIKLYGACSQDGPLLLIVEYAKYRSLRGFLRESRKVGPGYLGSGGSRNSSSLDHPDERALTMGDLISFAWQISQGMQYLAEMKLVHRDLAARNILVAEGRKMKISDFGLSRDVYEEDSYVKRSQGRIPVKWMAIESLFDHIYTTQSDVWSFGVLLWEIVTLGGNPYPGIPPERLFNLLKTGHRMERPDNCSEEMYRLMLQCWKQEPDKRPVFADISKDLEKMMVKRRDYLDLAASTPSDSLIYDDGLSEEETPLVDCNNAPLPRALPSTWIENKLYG
Procedure: (§1) The cellular potency of compounds inhibiting RET kinase were determined in HEK-293 cells expressing a G810R or G810S mutant RET Kif5b-RET fusion protein. Briefly, HEK-293 cells expressing a G810R or G810S mutant RET Kif5b-RET fusion protein were plated at 50K cells/well in 96 well poly-D-Lysine coated plates the day prior to the assay. The cells were incubated for 1 hour with test compound in DMEM (Dulbecco's Modified Eagle Medium) at a final DMSO concentration of 0.5%. […] After 1 hour the media was removed, the cells were fixed with 3.8% formaldehyde for 20 min, washed with PBS, and permeabilized for 10 min with 100% methanol. The plates were then washed with PBS-0.05% Tween20, and blocked with LI-COR Blocking solution (LI-COR Catalog No. 927-40000) for 1 hour. Plates were washed with PBS-0.05% Tween20, then incubated with anti-phospho-RET (Tyr1062) (Santa Cruz Catalog No. sc-20252-R) antibody and anti-GAPDH (Millipore Catalog No. MAB374) antibody for 2 hours. The plates were washed with PBS-0.05% Tween20, and incubated with anti-rabbit 680 (Molecular Probes Catalog No. A21109) and anti-mouse 800 (LI-COR Catalog No. 926-32210) secondary antibodies for 1 hour. All antibodies were diluted in LI-COR Block containing 0.05% Tween. The plates were washed with PBS-0.05% Tween20,100 μL PBS was added to each well, and the plates were read on a LI-COR Aerius fluorescent plate reader. The phospho-RET signal was normalized to the GAPDH signal. […] The POC values are fit to a 4 parameter logistic curve. The IC50 value is the point where the curve crosses 50 POC.

RET kinase Wild Type = RET kinase Wild Type (Homo sapiens, UniProt P07949); experiment: biochemical;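 also: HTRF kinase activity assay on RET enzyme, 1 h reaction at 22 °C, dual-wavelength readout as percent of control, DMSO-only wells as 100%, pre-quenched reactions as 0%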
RET kinase Wild Type, sequence (P07949 29-1114): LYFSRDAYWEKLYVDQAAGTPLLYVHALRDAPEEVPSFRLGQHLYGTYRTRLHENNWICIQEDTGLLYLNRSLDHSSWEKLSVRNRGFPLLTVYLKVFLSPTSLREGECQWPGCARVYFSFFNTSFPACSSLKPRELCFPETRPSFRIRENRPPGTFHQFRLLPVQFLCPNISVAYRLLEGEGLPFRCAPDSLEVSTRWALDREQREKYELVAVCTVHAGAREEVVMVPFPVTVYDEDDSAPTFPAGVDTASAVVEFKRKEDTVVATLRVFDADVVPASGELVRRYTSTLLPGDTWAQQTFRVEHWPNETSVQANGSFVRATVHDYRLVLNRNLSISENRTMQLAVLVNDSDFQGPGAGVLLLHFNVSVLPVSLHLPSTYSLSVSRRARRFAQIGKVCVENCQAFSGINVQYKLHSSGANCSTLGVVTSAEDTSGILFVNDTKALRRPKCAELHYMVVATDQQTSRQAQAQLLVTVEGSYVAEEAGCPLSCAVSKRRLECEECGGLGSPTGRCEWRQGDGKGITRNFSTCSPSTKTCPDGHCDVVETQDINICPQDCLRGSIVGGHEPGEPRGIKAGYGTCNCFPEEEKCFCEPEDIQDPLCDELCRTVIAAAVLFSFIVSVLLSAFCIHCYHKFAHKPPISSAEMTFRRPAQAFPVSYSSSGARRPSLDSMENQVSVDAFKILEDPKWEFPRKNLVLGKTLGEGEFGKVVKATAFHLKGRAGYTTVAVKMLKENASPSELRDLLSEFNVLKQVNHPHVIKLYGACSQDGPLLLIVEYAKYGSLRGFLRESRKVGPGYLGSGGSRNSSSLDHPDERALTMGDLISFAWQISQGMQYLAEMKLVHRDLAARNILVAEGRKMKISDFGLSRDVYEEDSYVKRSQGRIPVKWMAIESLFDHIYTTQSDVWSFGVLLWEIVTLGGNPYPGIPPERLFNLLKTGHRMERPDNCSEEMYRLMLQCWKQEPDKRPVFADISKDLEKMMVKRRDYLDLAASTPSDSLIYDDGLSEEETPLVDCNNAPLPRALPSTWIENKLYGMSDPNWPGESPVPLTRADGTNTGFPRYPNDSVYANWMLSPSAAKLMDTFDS

[2] = target: T2, HEK-293 cells expressing a G810S mutant RET Kif5b-RET fusion protein (Homo sapiens, UniProt P07949, G810S); experiment: RET G810S Mutant Cell Assay (phospho-RET Tyr1062); assay type: cell-based; conditions: HEK-293 Kif5b-RET G810S, 1 hour incubation, phospho-RET normalized to GAPDH
T2 construct: KIF5B (N-terminal portion incl. coiled-coil); expressed in transfected cells; host or cells: HEK-293
T2 sequence (P07949 713-1063 G810S limits assumed): T1 sequence (P07949 713-1063 G810R limits assumed) with R98S
Procedure: as §1

G810R mutant RET kinase = G810R mutant RET kinase (Homo sapiens, UniProt P07949, G810R); experiment: biochemical;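 also: HTRF KinEASE-TK enzymatic assay with 1 nM recombinant RET G810R, 1 h at 22 °C, dual-wavelength ratiometric readout, 100% control without compound, 0% from pre-quenched reactions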
G810R mutant RET kinase, sequence (P07949 29-1114 G810R): as the sequence (P07949 29-1114) above, with G782R counted along it
Procedure: The potency of compounds inhibiting several different RET kinase forms (Wild Type, V804M, G810R, & G810S) were determined using CisBio's HTRF® KinEASE™-TK assay technology. […] After a 1 hour incubation at 22° C., the extent of reaction was determined using a PerkinElmer EnVision multimode plate reader via HTRF dual wavelength detection, and the percent of control (POC) was calculated using a ratiometric emission factor. One hundred POC was determined using DMSO only samples (no compound present), and 0 POC was determined using pre-quenched control reactions.
The potency of a compound inhibiting G810R or G810S mutant RET kinase was determined using CisBio's HTRF® KinEASE™-TK assay technology. The assays contained G810R or G810S mutant RET produced at Array Biopharma, Inc. (1 nM enzyme). […] After a 1-h incubation at 22° C., the extent of reaction was determined using a PerkinElmer EnVision multimode plate reader via HTRF dual wavelength detection, and the percent of control (POC) was calculated using a ratiometric emission factor. One hundred POC was determined using no test compounds, and 0 POC was determined using pre-quenched control reactions.

G810S mutant RET kinase = G810S mutant RET kinase (Homo sapiens, UniProt P07949, G810S); experiment: biochemical;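 also: HTRF KinEASE-TK kinase assay with recombinant enzyme, 1 h at 22 °C, dual-wavelength ratiometric read-out, percent of control (DMSO-only = 100, pre-quenched reaction = 0)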
G810S mutant RET kinase, sequence (P07949 29-1114 G810S): as the sequence (P07949 29-1114) above, with G782S counted along it

RET kinase V804M = RET kinase V804M (Homo sapiens, UniProt P07949, V804M); experiment: RET Enzyme Assay (CisBio HTRF KinEASE-TK), V804M; assay type: biochemical; conditions: read-out: RET V804M Enz FRET IC50
RET kinase V804M, sequence (P07949 29-1114 V804M): as the sequence (P07949 29-1114) above, with V776M counted along it

[3] = target: T3, HEK-293 cells expressing a Kif5b-RET fusion protein (Homo sapiens, UniProt P07949); experiment: RET Cell Assay (phospho-RET Tyr1062); assay type: cell-based; conditions: HEK-293 Kif5b-RET, 1 hour incubation, phospho-RET normalized to GAPDH; read-out: KIF5B-RET pTYR1062 Cell IC50
T3 construct: KIF5B (N-terminal portion incl. coiled-coil); expressed in transfected cells; host or cells: HEK-293; the other entry of the earlier key: KIF5B (P33176, Kinesin-1 heavy chain)
T3 sequence (P07949 713-1063 limits assumed): T1 sequence (P07949 713-1063 G810R limits assumed) with R98G
Summary of the method: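 Phospho-RET (Tyr1062) to GAPDH ratio read by in-cell fluorescent immunodetection after 1 hour compound exposure in DMEM, 0.5% DMSO. Cells: HEK-293 carrying Kif5b-RET fusion. POC data fit to a 4-parameter logistic curve, IC50 taken at 50 POC.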

Row | Compound | IC50 [1] [nM] | IC50 (RET kinase Wild Type) [nM] | IC50 [2] [nM] | IC50 (G810R mutant RET kinase) [nM] | IC50 (G810S mutant RET kinase) [nM] | IC50 (RET kinase V804M) [nM] | IC50 [3] [nM]
1 | CC(C)n1c2c(c3c(N)ncnc31)-c1noc(C3CC3)c1C(O)CC2 (racemic) [Example 29, 11-amino-3-cyclopropyl-7-isopropyl-4,5,6,7-tetrahydroisoxazolo[4″,3″:6′,7′]cyclohepta[1′,2′:4,5]pyrrolo[2,3-d]pyrimidin-4-ol] | 71 | 8 | 37 | 27 | 25 | 26 | 12
2 | CC(C)n1c2c(c3c(N)ncnc31)-c1noc(C3CC3)c1S(=O)(=O)NC2 [Example 21, 11-amino-3-cyclopropyl-7-isopropyl-6,7-dihydro-5H-isoxazolo[3,4-f]pyrimido[5′,4′:4,5]pyrrolo[2,3-d][1,2]thiazepine 4,4-dioxide 2,2,2-trifluoroacetate] | 87 | 9 | 83 | 31 |  | 44 | 28
3 | COC(=O)c1ccc2cc3n(c2c1)C(=O)NCc1c-3c2c(N)ncnc2n1C(C)C [Example 70, Methyl 1-amino-5-isopropyl-8-oxo-5,6,7,8-tetrahydropyrimido[5″,4″:4′,5′]pyrrolo[2′,3′:5,6][1,3]diazepino[1,7-a]indole-11-carboxylate] | 607 | 92 | 388 | 183 | 312 |  | 166
4 | CC(C)n1c2c(c3c(N)ncnc31)-c1cc3ccc(C(=O)NC4CC4)cc3n1C(=O)NC2 [Example 72, 1-amino-N-cyclopropyl-5-isopropyl-8-oxo-5,6,7,8-tetrahydropyrimido[5″,4″:4′,5′]pyrrolo[2′,3′:5,6][1,3]diazepino[1,7-a]indole-11-carboxamide] | 16200 | 512 | 6350 | 3090 | 2630 |  | 3960
5 | CNC(=O)c1ccc2c(Cl)c3n(c2c1)C(=O)NCc1c-3c2c(N)ncnc2n1C(C)C [Example 74, 1-Amino-14-chloro-5-isopropyl-N-methyl-8-oxo-5,6,7,8-tetrahydropyrimido[5″,4″:4′,5′]pyrrolo[2′,3′:5,6][1,3]diazepino[1,7-a]indole-11-carboxamide] | 2940 | 353 | 918 | 2080 | 289 | 6000 | 
6 | COC(=O)c1ccc2c(Cl)c3n(c2c1)C(=O)NCc1c-3c2c(N)ncnc2n1C(C)C [Example 75, Methyl 1-amino-14-chloro-5-isopropyl-8-oxo-5,6,7,8-tetrahydropyrimido[5″,4″:4′,5′]pyrrolo[2′,3′:5,6][1,3]diazepino[1,7-a]indole-11-carboxylate] | 170 | 82 | 191 | 421 | 51 | 2030 | 
7 | CC(C)n1c2c(c3c(N)ncnc31)-c1cc3ccc(C#N)cc3n1C(=O)NC2 [Example 76, 1-amino-5-isopropyl-8-oxo-5,6,7,8-tetrahydropyrimido[5″,4″:4′,5′]pyrrolo[2′,3′:5,6][1,3]diazepino[1,7-a]indole-11-carbonitrile] | 845 | 117 | 570 | 118 | 292 |  | 143
8 | CC(C)n1c2c(c3c(N)ncnc31)-c1cc3cc(Cl)ccc3n1C(=O)NC2 [Example 77, 1-amino-12-chloro-5-isopropyl-6,7-dihydropyrimido[5″,4″:4′,5′]pyrrolo[2′,3′: 5,6][1,3]diazepino[1,7-a]indol-8(5H)-one] | 89 | 27 | 32 | 135 | 73 |  | 13
9 | CC(C)n1c2c(c3c(N)ncnc31)-c1cc3c(F)cccc3n1C(=O)NC2 [Example 83, 1-amino-13-fluoro-5-isopropyl-6,7-dihydropyrimido[5″,4″:4′,5′]pyrrolo[2′,3′: 5,6][1,3]diazepino[1,7-a]indol-8(5H)-one] | 1060 | 63 | 812 | 58 | 97 |  | 293
10 | COCCn1ccc(NC(=O)c2ccc3cc4n(c3c2)CCCc2c-4c3c(N)ncnc3n2C(C)C)n1 [Example 96, 1-amino-5-isopropyl-N-(1-(2-methoxyethyl)-1H-pyrazol-3-yl)-5,6,7,8-tetrahydropyrimido[5″,4″:4′,5′]pyrrolo[3′,2′: 3,4]azepino[1,2-a]indole-11-carboxamide] | 142 | 27 | 116 | 187 | 393 |  | 85
11 | CC(C)n1c2c(c3c(N)ncnc31)-c1cc3ccc(C(=O)Nc4ccn(CCC(F)(F)F)n4)cc3n1CCC2 [Example 101, 1-amino-5-isopropyl-N-(1-(3,3,3-trifluoropropyl)-1H-pyrazol-3-yl)-5,6,7,8-tetrahydropyrimido[5″,4″:4′,5′]pyrrolo[3′,2′: 3,4]azepino[1,2-a]indole-11-carboxamide] | 75 | 135 | 62 | 1420 | 805 |  | 43
12 | Nc1ncnc2c1c1c(n2-c2ccccc2)CNC(=O)c2c-1noc2C1CC1 [Example 110, 11-amino-3-cyclopropyl-7-phenyl-6,7-dihydroisoxazolo[4,3-c]pyrimido[5′,4′:4,5]pyrrolo[3,2-e]azepin-4(5H)-one 2,2,2-trifluoroacetate] | 537 | 411 | 201 | 214 | 284 | 1740 | 
13 | CC(=O)Nc1ccc2cc3n(c2c1)CCCc1c-3c2c(N)ncnc2n1C(C)C [Example 139, N-(1-amino-5-isopropyl-5,6,7,8-tetrahydropyrimido[5″,4″:4′,5′]pyrrolo[3′,2′:3,4]azepino[1,2-a]indol-11-yl)acetamide] | 49 | 75 | 36 | 1030 | 474 |  | 16
